# Reference: ChEMBL document CHEMBL4651402, “Screening of ~5500 FDA-approved drugs and clinical candidates for anti-SARS-CoV-2 activity” (2021)
# Test system: SARS-CoV-2
# Test: microbe, parasite or virus in culture
# Type: functional, organism-based, Chlorocebus sabaeus, Vero C1008
# Details: Severe acute respiratory syndrome coronavirus 2, Vero C1008, 48 h; read-out: IC50
row,Compound,IC50 [µM]
1,CC(CN1c2ccccc2Sc2ccccc21)N(C)C (stereo not drawn) [PROMETHAZINE],> 100
2,COc1cc2c3cc1Oc1c(OC)c(OC)cc4c1[C@@H](Cc1cccc(c1)Oc1ccc(c(O)c1)C[C@@H]3N(C)CC2)N(C)CC4,> 6.31
3,O=C(N[C@H]1CN2CCC1CC2)c1cc2cccc(Cl)c2s1 [ENCENICLINE],> 100
4,Cc1c(O)cccc1C(=O)N[C@@H](CSc1ccccc1)[C@H](O)CN1C[C@H]2CCCC[C@H]2C[C@H]1C(=O)NC(C)(C)C,~3.97
5,CCOC1O[C@H]([C@@H](COCc2ccccc2)OCc2ccccc2)[C@H](OCc2ccccc2)[C@H]1O (stereo partly drawn) [TRIBENOSIDE],> 50.1
6,COC(=O)N[C@H](C(=O)N1CCC[C@H]1c1ncc(-c2ccc(-c3ccc(-c4cnc([C@@H]5CCCN5C(=O)[C@@H](NC(=O)OC)C(C)C)[nH]4)cc3)cc2)[nH]1)C(C)C,> 100
7,CN(C)S(=O)(=O)c1ccc2c(c1)N(CCCN1CCC(CCO)CC1)c1ccccc1S2 [PIPOTIAZINE],> 100
8,CCN(CC)CCCC(C)Nc1ccnc2cc(Cl)ccc12 (stereo not drawn) [CHLOROQUINE],~9.46
9,COc1ccccc1N1CCN(CCCCNC(=O)c2ccc3ccccc3c2)CC1 [BP-897],> 25.1
10,CN1CCCN(C(c2ccccc2)c2ccc(Cl)cc2)CC1 (stereo not drawn) [HOMOCHLORCYCLIZINE],> 25.1
11,CNCC[C@@H](Oc1cccc2ccccc12)c1cccs1 [(R)-DULOXETINE],> 100
12,Nc1nc(Nc2ccc3c(c2)CC[C@@H](N2CCCC2)CC3)nn1-c1cc2c(nn1)-c1ccccc1CCC2 [BEMCENTINIB],> 50.1
13,CCN(CC)CCOc1ccc(-c2nc3cc(Cl)ccc3s2)cc1 [HALETHAZOLE],> 100
14,CNCc1ccc(C)c(NC(=O)c2ccc(Nc3nc(-c4ccccc4)c4ccccc4n3)cc2)c1 [BMS-833923],> 100

# Same assay, conditions: Severe acute respiratory syndrome coronavirus 2, Vero C1008, 48 h; read-out: pIC50 (converted)
row,Compound,IC50 [µM]
1,CC(CN1c2ccccc2Sc2ccccc21)N(C)C (stereo not drawn) [PROMETHAZINE],> 100
2,COc1cc2c3cc1Oc1c(OC)c(OC)cc4c1[C@@H](Cc1cccc(c1)Oc1ccc(c(O)c1)C[C@@H]3N(C)CC2)N(C)CC4,> 6.31
3,O=C(N[C@H]1CN2CCC1CC2)c1cc2cccc(Cl)c2s1 [ENCENICLINE],> 100
4,Cc1c(O)cccc1C(=O)N[C@@H](CSc1ccccc1)[C@H](O)CN1C[C@H]2CCCC[C@H]2C[C@H]1C(=O)NC(C)(C)C,~3.98
5,CCOC1O[C@H]([C@@H](COCc2ccccc2)OCc2ccccc2)[C@H](OCc2ccccc2)[C@H]1O (stereo partly drawn) [TRIBENOSIDE],> 50.1
6,COC(=O)N[C@H](C(=O)N1CCC[C@H]1c1ncc(-c2ccc(-c3ccc(-c4cnc([C@@H]5CCCN5C(=O)[C@@H](NC(=O)OC)C(C)C)[nH]4)cc3)cc2)[nH]1)C(C)C,> 100
7,CN(C)S(=O)(=O)c1ccc2c(c1)N(CCCN1CCC(CCO)CC1)c1ccccc1S2 [PIPOTIAZINE],> 100
8,CCN(CC)CCCC(C)Nc1ccnc2cc(Cl)ccc12 (stereo not drawn) [CHLOROQUINE],~9.55
9,COc1ccccc1N1CCN(CCCCNC(=O)c2ccc3ccccc3c2)CC1 [BP-897],> 25.1
10,CN1CCCN(C(c2ccccc2)c2ccc(Cl)cc2)CC1 (stereo not drawn) [HOMOCHLORCYCLIZINE],> 25.1
11,CNCC[C@@H](Oc1cccc2ccccc12)c1cccs1 [(R)-DULOXETINE],> 100
12,Nc1nc(Nc2ccc3c(c2)CC[C@@H](N2CCCC2)CC3)nn1-c1cc2c(nn1)-c1ccccc1CCC2 [BEMCENTINIB],> 50.1
13,CCN(CC)CCOc1ccc(-c2nc3cc(Cl)ccc3s2)cc1 [HALETHAZOLE],> 100
14,CNCc1ccc(C)c(NC(=O)c2ccc(Nc3nc(-c4ccccc4)c4ccccc4n3)cc2)c1 [BMS-833923],> 100

# Test system: not listed separately
# Test: in vitro
# Details: chlorocebus sabaeus, Vero E6 (Vero C1008) cells, CC50
row,Compound,CC50 at 48 h [µM]
1,CC(CN1c2ccccc2Sc2ccccc21)N(C)C (stereo not drawn) [PROMETHAZINE],33.1
2,COc1cc2c3cc1Oc1c(OC)c(OC)cc4c1[C@@H](Cc1cccc(c1)Oc1ccc(c(O)c1)C[C@@H]3N(C)CC2)N(C)CC4,10.2
3,O=C(N[C@H]1CN2CCC1CC2)c1cc2cccc(Cl)c2s1 [ENCENICLINE],20.9
4,Cc1c(O)cccc1C(=O)N[C@@H](CSc1ccccc1)[C@H](O)CN1C[C@H]2CCCC[C@H]2C[C@H]1C(=O)NC(C)(C)C,11.2
5,CCOC1O[C@H]([C@@H](COCc2ccccc2)OCc2ccccc2)[C@H](OCc2ccccc2)[C@H]1O (stereo partly drawn) [TRIBENOSIDE],17.4
6,COC(=O)N[C@H](C(=O)N1CCC[C@H]1c1ncc(-c2ccc(-c3ccc(-c4cnc([C@@H]5CCCN5C(=O)[C@@H](NC(=O)OC)C(C)C)[nH]4)cc3)cc2)[nH]1)C(C)C,~19.7
7,CCN(CC)CCCC(C)Nc1ccnc2cc(Cl)ccc12 (stereo not drawn) [CHLOROQUINE],~38.7
8,COc1ccccc1N1CCN(CCCCNC(=O)c2ccc3ccccc3c2)CC1 [BP-897],30.2
9,CN1CCCN(C(c2ccccc2)c2ccc(Cl)cc2)CC1 (stereo not drawn) [HOMOCHLORCYCLIZINE],21.1
10,Nc1nc(Nc2ccc3c(c2)CC[C@@H](N2CCCC2)CC3)nn1-c1cc2c(nn1)-c1ccccc1CCC2 [BEMCENTINIB],1.55
11,CCN(CC)CCOc1ccc(-c2nc3cc(Cl)ccc3s2)cc1 [HALETHAZOLE],3.72
12,CNCc1ccc(C)c(NC(=O)c2ccc(Nc3nc(-c4ccccc4)c4ccccc4n3)cc2)c1 [BMS-833923],3.09

# Same assay, conditions: chlorocebus sabaeus, Vero E6 (Vero C1008) cells, pCC50
row,Compound,CC50 at 48 h [µM]
1,CC(CN1c2ccccc2Sc2ccccc21)N(C)C (stereo not drawn) [PROMETHAZINE],33.1
2,COc1cc2c3cc1Oc1c(OC)c(OC)cc4c1[C@@H](Cc1cccc(c1)Oc1ccc(c(O)c1)C[C@@H]3N(C)CC2)N(C)CC4,10.2
3,O=C(N[C@H]1CN2CCC1CC2)c1cc2cccc(Cl)c2s1 [ENCENICLINE],20.9
4,Cc1c(O)cccc1C(=O)N[C@@H](CSc1ccccc1)[C@H](O)CN1C[C@H]2CCCC[C@H]2C[C@H]1C(=O)NC(C)(C)C,11.2
5,CCOC1O[C@H]([C@@H](COCc2ccccc2)OCc2ccccc2)[C@H](OCc2ccccc2)[C@H]1O (stereo partly drawn) [TRIBENOSIDE],17.4
6,COC(=O)N[C@H](C(=O)N1CCC[C@H]1c1ncc(-c2ccc(-c3ccc(-c4cnc([C@@H]5CCCN5C(=O)[C@@H](NC(=O)OC)C(C)C)[nH]4)cc3)cc2)[nH]1)C(C)C,~19.5
7,CN(C)S(=O)(=O)c1ccc2c(c1)N(CCCN1CCC(CCO)CC1)c1ccccc1S2 [PIPOTIAZINE],7.24
8,CCN(CC)CCCC(C)Nc1ccnc2cc(Cl)ccc12 (stereo not drawn) [CHLOROQUINE],~38.9
9,COc1ccccc1N1CCN(CCCCNC(=O)c2ccc3ccccc3c2)CC1 [BP-897],30.2
10,CN1CCCN(C(c2ccccc2)c2ccc(Cl)cc2)CC1 (stereo not drawn) [HOMOCHLORCYCLIZINE],20.9
11,Nc1nc(Nc2ccc3c(c2)CC[C@@H](N2CCCC2)CC3)nn1-c1cc2c(nn1)-c1ccccc1CCC2 [BEMCENTINIB],1.55
12,CCN(CC)CCOc1ccc(-c2nc3cc(Cl)ccc3s2)cc1 [HALETHAZOLE],3.72
13,CNCc1ccc(C)c(NC(=O)c2ccc(Nc3nc(-c4ccccc4)c4ccccc4n3)cc2)c1 [BMS-833923],3.09

# Same assay, conditions: chlorocebus sabaeus, vero c1008, CC50
row,Compound,CC50 at 48 h [µM]
1,CNCC[C@@H](Oc1cccc2ccccc12)c1cccs1 [(R)-DULOXETINE],16.2

# Same assay, conditions: chlorocebus sabaeus, vero c1008, pCC50
row,Compound,CC50 at 48 h [µM]
1,CNCC[C@@H](Oc1cccc2ccccc12)c1cccs1 [(R)-DULOXETINE],16.2

# Test system: SARS-CoV-2
# Test: microbe, parasite or virus in culture
# Details: Severe acute respiratory syndrome coronavirus 2, Vero C1008, 48 h
row,Compound,IC50 [µM]
1,CC(CN1c2ccccc2Sc2ccccc21)N(C)C (stereo not drawn) [PROMETHAZINE],21.9
2,COc1cc2c3cc1Oc1c(OC)c(OC)cc4c1[C@@H](Cc1cccc(c1)Oc1ccc(c(O)c1)C[C@@H]3N(C)CC2)N(C)CC4,8.51
3,O=C(N[C@H]1CN2CCC1CC2)c1cc2cccc(Cl)c2s1 [ENCENICLINE],> 100
4,Cc1c(O)cccc1C(=O)N[C@@H](CSc1ccccc1)[C@H](O)CN1C[C@H]2CCCC[C@H]2C[C@H]1C(=O)NC(C)(C)C,5.22
5,CCOC1O[C@H]([C@@H](COCc2ccccc2)OCc2ccccc2)[C@H](OCc2ccccc2)[C@H]1O (stereo partly drawn) [TRIBENOSIDE],> 50.1
6,COC(=O)N[C@H](C(=O)N1CCC[C@H]1c1ncc(-c2ccc(-c3ccc(-c4cnc([C@@H]5CCCN5C(=O)[C@@H](NC(=O)OC)C(C)C)[nH]4)cc3)cc2)[nH]1)C(C)C,> 100
7,CN(C)S(=O)(=O)c1ccc2c(c1)N(CCCN1CCC(CCO)CC1)c1ccccc1S2 [PIPOTIAZINE],13.8
8,CCN(CC)CCCC(C)Nc1ccnc2cc(Cl)ccc12 (stereo not drawn) [CHLOROQUINE],~5.86
9,COc1ccccc1N1CCN(CCCCNC(=O)c2ccc3ccccc3c2)CC1 [BP-897],> 25.1
10,CN1CCCN(C(c2ccccc2)c2ccc(Cl)cc2)CC1 (stereo not drawn) [HOMOCHLORCYCLIZINE],> 20
11,CNCC[C@@H](Oc1cccc2ccccc12)c1cccs1 [(R)-DULOXETINE],7.24
12,Nc1nc(Nc2ccc3c(c2)CC[C@@H](N2CCCC2)CC3)nn1-c1cc2c(nn1)-c1ccccc1CCC2 [BEMCENTINIB],1.78
13,CCN(CC)CCOc1ccc(-c2nc3cc(Cl)ccc3s2)cc1 [HALETHAZOLE],~3.89
14,CNCc1ccc(C)c(NC(=O)c2ccc(Nc3nc(-c4ccccc4)c4ccccc4n3)cc2)c1 [BMS-833923],2.95

# Same assay, conditions: Severe acute respiratory syndrome coronavirus 2, Vero C1008, 48 h, read-out: pIC50 (converted)
row,Compound,IC50 [µM]
1,CC(CN1c2ccccc2Sc2ccccc21)N(C)C (stereo not drawn) [PROMETHAZINE],21.9
2,COc1cc2c3cc1Oc1c(OC)c(OC)cc4c1[C@@H](Cc1cccc(c1)Oc1ccc(c(O)c1)C[C@@H]3N(C)CC2)N(C)CC4,8.51
3,O=C(N[C@H]1CN2CCC1CC2)c1cc2cccc(Cl)c2s1 [ENCENICLINE],> 100
4,Cc1c(O)cccc1C(=O)N[C@@H](CSc1ccccc1)[C@H](O)CN1C[C@H]2CCCC[C@H]2C[C@H]1C(=O)NC(C)(C)C,5.25
5,CCOC1O[C@H]([C@@H](COCc2ccccc2)OCc2ccccc2)[C@H](OCc2ccccc2)[C@H]1O (stereo partly drawn) [TRIBENOSIDE],> 50.1
6,COC(=O)N[C@H](C(=O)N1CCC[C@H]1c1ncc(-c2ccc(-c3ccc(-c4cnc([C@@H]5CCCN5C(=O)[C@@H](NC(=O)OC)C(C)C)[nH]4)cc3)cc2)[nH]1)C(C)C,> 100
7,CN(C)S(=O)(=O)c1ccc2c(c1)N(CCCN1CCC(CCO)CC1)c1ccccc1S2 [PIPOTIAZINE],13.8
8,CCN(CC)CCCC(C)Nc1ccnc2cc(Cl)ccc12 (stereo not drawn) [CHLOROQUINE],~5.89
9,COc1ccccc1N1CCN(CCCCNC(=O)c2ccc3ccccc3c2)CC1 [BP-897],> 25.1
10,CN1CCCN(C(c2ccccc2)c2ccc(Cl)cc2)CC1 (stereo not drawn) [HOMOCHLORCYCLIZINE],> 20
11,CNCC[C@@H](Oc1cccc2ccccc12)c1cccs1 [(R)-DULOXETINE],7.24
12,Nc1nc(Nc2ccc3c(c2)CC[C@@H](N2CCCC2)CC3)nn1-c1cc2c(nn1)-c1ccccc1CCC2 [BEMCENTINIB],1.78
13,CCN(CC)CCOc1ccc(-c2nc3cc(Cl)ccc3s2)cc1 [HALETHAZOLE],~3.89
14,CNCc1ccc(C)c(NC(=O)c2ccc(Nc3nc(-c4ccccc4)c4ccccc4n3)cc2)c1 [BMS-833923],2.95
